US7019109B2, “SSTR1-selective analogs” (The Salk Institute for Bilogical Studies, priority 2001, dated 2006)
Read-outs that look alike come from different tables or passages of the source. *1 amine or outer side, *2 acyl side, *3 side chain or, on linkers, in order; H or OH if unused. Where a SMILES comes first, the peptide text is derived from it. Bridges are numbered along the chain shown (N, C = ends). [ ]: non-standard residue; d: D form. NMePhe(4-CH2NHiPr) = CN[C@@H](Cc1ccc(CNC(C)C)cc1)C(=O)O; Phe(4-CH2NHiPr) = CC(C)NCc1ccc(C[C@H](N)C(=O)O)cc1; X1 = NC(=O)N[C@@H](CS[*:2])C(=O)[*:1]; d2Nal = N[C@H](Cc1ccc2ccccc2c1)C(=O)O

What was measured:
Assay type in all cases: binding
human SSTR1 = molecular target: T1, human SSTR1 (Homo sapiens, UniProt P30872); test: Displacement of 125I-[Leu8,D-Trp22,Tyr25]-SRIF-28 from cloned SSTR1 (receptor autoradiography); conditions: for binding strength and selectivity for SSTR1, in words: Peptide No. 27 and 2A after iodination
T1 construct: expressed in transfected cells; host or cells: CHO-K1 cells and CCL39 cells
Method: (§1) Generally, recombinant cells expressing the receptor are washed and homogenized to prepare a crude protein homogenate that is frozen, embedded and then cut in 10–20 μm thin sections, as known in this art. Candidate substances, such as potential SRIF agonists and antagonists, are incubated with the tissue sections, and the interaction between the candidate substance and the receptor polypeptide is monitored.
(§2) Receptor binding assays are performed on cloned SRIF receptors as generally set forth in Reubi, J. C. et al., J. Clin. Endocrinol. […] Med. 2000, 27, 273–282.
(§3) In vitro Bioassay: The various somatostatin analogs are tested in vitro for their ability to bind to isolated cloned receptors expressed on CHO-K1 cells and CCL39 cells. CHO-K1 cells are grown in Ham's F-12 medium, and CCL39 cells are grown in Dulbecco's modified Eagle's medium/Ham's F-12(1:1) mix, supplemented with 10% fetal bovine serum, 100 U/ml penicillin and 100 μg/ml streptomycin, in humidified air containing 5% CO2 at 37° C.
(§4) Cells are washed and prepared to produce homogenates as described in detail in Reubi, J. C. et al, Eur. J. Nucl. Med. 2000, 27, 273–282.
(§5) Receptor autoradiography is performed on 20 μm thick cryostat sections of the membrane pellets, mounted on microscope slides, and then stored at −20° C. […] Increasing concentrations of the unlabeled peptide are used ranging from 0.1–1000 nM. […] IC50 values are calculated after quantification of the data using a computer-assisted image processing system as known in this art.

human SSTR2 = molecular target: T2, human SSTR2 (Homo sapiens, UniProt P30874); test: Displacement of 125I-[Leu8,D-Trp22,Tyr25]-SRIF-28 from cloned SSTR2 (receptor autoradiography)
T2 construct: expressed in transfected cells; host or cells: CHO-K1 cells and CCL39 cells
Method: as §1, §2, §3, §4
(§6) Receptor autoradiography is performed on 20 μm thick cryostat sections of the membrane pellets, mounted on microscope slides, and then stored at −20° C. […] […] […] IC50 values are calculated after quantification of the data using a computer-assisted image processing system as known in this art.

human SSTR3 = molecular target: T3, human SSTR3 (Homo sapiens, UniProt P32745); test: Displacement of 125I-[Leu8,D-Trp22,Tyr25]-SRIF-28 from cloned SSTR3 (receptor autoradiography); conditions: for effect on binding of the SRIF-28 radioligand to human SSTR3: at concentrations of 100 nM
T3 construct: expressed in transfected cells; host or cells: CHO-K1 cells and CCL39 cells
Method: as §1, §2, §3, §4, §5

human SSTR4 = molecular target: T4, human SSTR4 (Homo sapiens, UniProt P31391); test: Displacement of 125I-[Leu8,D-Trp22,Tyr25]-SRIF-28 from cloned SSTR4 (receptor autoradiography)
T4 construct: expressed in transfected cells; host or cells: CHO-K1 cells and CCL39 cells
Method: as §1, §2, §3, §4, §5

human SSTR5 = molecular target: T5, human SSTR5 (Homo sapiens, UniProt P35346); test: Displacement of 125I-[Leu8,D-Trp22,Tyr25]-SRIF-28 from cloned SSTR5 (receptor autoradiography)
T5 construct: expressed in transfected cells; host or cells: CHO-K1 cells and CCL39 cells
Method: as §1, §2, §3, §4, §6

[1] = displacement of iodinated SRIF-28 radioligand, read-out: IC50 / binding affinity at human SSTR1
[2] = inhibition of radioligand binding of 125I-[Leu8,D-Trp22,Tyr24]SRIF-28, cloned receptor, table, read-out: IC50 (nM) mSSTR4
[3] = inhibition of radioligand binding of 125I-[Leu8,D-Trp22,Tyr24]SRIF-28, cloned receptor, table, read-out: IC50 (nM) mSSTR1
[4] = inhibition of radioligand binding of 125I-[Leu8,D-Trp22,Tyr24]SRIF-28, cloned receptor, table, read-out: IC50 (nM) mSSTR2
[5] = read-out: concentration below which no binding to SSTR2
[6] = inhibition of radioligand binding of 125I-[Leu8,D-Trp22,Tyr24]SRIF-28, cloned receptor, table, read-out: IC50 (nM) mSSTR5
[7] = read-out: concentration below which no binding to SSTR5

T5 sequence (P35346 whole entry): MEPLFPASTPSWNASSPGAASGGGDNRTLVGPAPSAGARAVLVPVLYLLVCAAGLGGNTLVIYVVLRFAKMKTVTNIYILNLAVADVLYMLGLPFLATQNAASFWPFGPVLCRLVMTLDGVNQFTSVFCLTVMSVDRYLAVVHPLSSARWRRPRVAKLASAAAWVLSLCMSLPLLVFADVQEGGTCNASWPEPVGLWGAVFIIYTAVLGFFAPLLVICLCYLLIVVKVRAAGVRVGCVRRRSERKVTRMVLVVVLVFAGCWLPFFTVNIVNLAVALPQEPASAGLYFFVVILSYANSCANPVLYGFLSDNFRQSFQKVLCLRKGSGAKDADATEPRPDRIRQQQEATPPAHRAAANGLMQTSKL
T3 sequence (P32745 whole entry): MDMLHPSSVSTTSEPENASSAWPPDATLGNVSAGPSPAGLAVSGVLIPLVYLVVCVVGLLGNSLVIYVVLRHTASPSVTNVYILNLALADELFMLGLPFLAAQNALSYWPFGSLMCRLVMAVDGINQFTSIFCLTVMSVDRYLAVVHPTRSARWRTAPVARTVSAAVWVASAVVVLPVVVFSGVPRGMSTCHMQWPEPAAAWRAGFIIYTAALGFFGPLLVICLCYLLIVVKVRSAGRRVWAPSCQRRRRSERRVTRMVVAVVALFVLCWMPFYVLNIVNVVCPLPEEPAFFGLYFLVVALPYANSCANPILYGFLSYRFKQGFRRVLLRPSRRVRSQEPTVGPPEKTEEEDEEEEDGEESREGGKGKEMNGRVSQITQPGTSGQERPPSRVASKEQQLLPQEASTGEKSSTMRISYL
T1 sequence (P30872 whole entry): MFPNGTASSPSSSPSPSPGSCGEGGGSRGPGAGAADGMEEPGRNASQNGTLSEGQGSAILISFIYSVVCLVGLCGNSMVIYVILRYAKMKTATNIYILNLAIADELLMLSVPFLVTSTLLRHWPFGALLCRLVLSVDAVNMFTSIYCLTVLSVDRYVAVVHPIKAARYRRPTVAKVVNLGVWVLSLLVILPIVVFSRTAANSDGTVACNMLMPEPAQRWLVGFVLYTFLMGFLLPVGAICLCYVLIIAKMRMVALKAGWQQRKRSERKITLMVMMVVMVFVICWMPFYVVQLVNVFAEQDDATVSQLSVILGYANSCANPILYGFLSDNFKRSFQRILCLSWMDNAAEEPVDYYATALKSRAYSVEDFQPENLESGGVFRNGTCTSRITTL
T4 sequence (P31391 whole entry): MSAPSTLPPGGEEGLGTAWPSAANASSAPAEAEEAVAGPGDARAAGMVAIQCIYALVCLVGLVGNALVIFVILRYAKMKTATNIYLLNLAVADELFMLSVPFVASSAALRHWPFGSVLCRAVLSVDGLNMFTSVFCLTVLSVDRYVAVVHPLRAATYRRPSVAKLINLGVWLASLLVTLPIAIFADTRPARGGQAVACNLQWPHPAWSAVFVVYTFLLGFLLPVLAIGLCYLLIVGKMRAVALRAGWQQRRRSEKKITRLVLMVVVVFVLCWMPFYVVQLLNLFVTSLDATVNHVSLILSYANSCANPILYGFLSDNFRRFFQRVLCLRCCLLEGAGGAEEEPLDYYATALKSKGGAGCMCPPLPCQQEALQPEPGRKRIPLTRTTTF
T2 sequence (P30874 whole entry): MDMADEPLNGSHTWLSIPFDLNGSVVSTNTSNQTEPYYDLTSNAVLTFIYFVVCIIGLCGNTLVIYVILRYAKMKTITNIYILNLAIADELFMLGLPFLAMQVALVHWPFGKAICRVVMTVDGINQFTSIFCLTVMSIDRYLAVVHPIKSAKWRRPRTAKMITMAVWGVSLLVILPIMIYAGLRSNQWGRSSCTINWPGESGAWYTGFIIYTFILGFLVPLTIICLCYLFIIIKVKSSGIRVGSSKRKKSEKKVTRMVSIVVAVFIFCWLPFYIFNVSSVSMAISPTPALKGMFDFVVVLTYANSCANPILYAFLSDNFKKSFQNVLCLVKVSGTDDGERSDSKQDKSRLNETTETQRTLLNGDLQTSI

IC50 (human SSTR1; [1]) | IC50 (human SSTR2; read-out: IC50 (nM) mSSTR2) | IC50 (human SSTR3; read-out: IC50 (nM) mSSTR3) | IC50 (human SSTR4; read-out: IC50 (nM) mSSTR4) | IC50 (human SSTR5; read-out: IC50 (nM) mSSTR5) | binding strength and selectivity for SSTR1, in words (human SSTR1) | effect on binding of the SRIF-28 radioligand to human SSTR3 (human SSTR3) | IC50 (human SSTR4; [2]) | IC50 (human SSTR1; [3]) | IC50 (human SSTR2; [4]) | IC50 (human SSTR2; [5]) | IC50 (human SSTR5; [6]) | IC50 (human SSTR5; [7]) | Molecule | further results
8.1 nM | > 10000 nM | > 1000 nM | > 1000 nM | > 1000 nM |  |  |  |  |  |  |  |  | CC(C)NCc1ccc(C[C@@H]2NC(=O)[C@@H](Cc3c[nH]c4ccccc34)NC(=O)[C@H](Cc3ccccc3)NC(=O)[C@H](Cc3ccccc3)NC(=O)[C@H](CCCCN)NC(=O)[C@@H](NC(N)=O)CSSC[C@@H](C(=O)O)NC(=O)[C@H](CO)NC(=O)[C@H]([C@@H](C)O)NC(=O)[C@H](Cc3ccc(O)cc3)NC(=O)[C@H]([C@@H](C)O)NC2=O)cc1 [Peptide No. 12A, (cyclo)CbmCys-Lys-Phe-Phe-D-Trp-IAmp-Thr-Tyr-Thr-Ser-Cys-OH] (KFF[dW][Phe(4-CH2NHiPr)]TYTSC-OH; linker N-10 via X1) | 
 | > 10000 nM |  |  |  | continues to bind strongly | even less effect | > 10000 nM |  |  |  |  |  | CC(C)NCc1ccc(C[C@@H]2NC(=O)[C@@H](Cc3c[nH]c4ccccc34)NC(=O)[C@H](Cc3ccccc3)NC(=O)[C@H](Cc3ccccc3)NC(=O)[C@H](CCCCN)NC(=O)[C@@H](N)CSSC[C@@H](C(=O)O)NC(=O)[C@H](CO)NC(=O)[C@H]([C@@H](C)O)NC(=O)[C@H](Cc3ccc(O)cc3)NC(=O)[C@H]([C@@H](C)O)NC2=O)cc1 [2A, (cyclo)H-Cys-Lys-Phe-Phe-D-Trp-IAmp-Thr-Tyr-Thr-Ser-Cys-OH] (H-CKFF[dW][Phe(4-CH2NHiPr)]TYTSC-OH; disulfide 1-11) | 
~6.1 nM |  | > 1000 nM | > 1000 nM |  |  | minimal effects |  | 7.2 nM | > 10000 nM | > 10000 nM | > 10000 nM | > 10000 nM | CC(C)NCc1ccc(C[C@H]2C(=O)N[C@@H]([C@@H](C)O)C(=O)N[C@@H](Cc3ccc(O)cc3)C(=O)N[C@@H]([C@@H](C)O)C(=O)N[C@@H](CO)C(=O)N[C@H](C(=O)O)CSSC[C@H](N)C(=O)N[C@@H](CCCCN)C(=O)N[C@@H](Cc3ccccc3)C(=O)N[C@@H](Cc3ccccc3)C(=O)N[C@H](Cc3c[nH]c4ccccc34)C(=O)N2C)cc1 [Peptide No. 2, (cyclo)H-Cys-Lys-Phe-Phe-D-Trp-N^αMeIAmp-Thr-Tyr-Thr-Ser-Cys-OH] (H-CKFF[dW][NMePhe(4-CH2NHiPr)]TYTSC-OH; disulfide 1-11) | effect on binding of the SRIF-28 radioligand to human SSTR2 (human SSTR2; at concentrations of 100 nM): minimal effects; binding to SSTR3, in words (human SSTR3; Peptide No. 27 iodinated): does not bind strongly; binding to SSTR4, in words (human SSTR4; Peptide No. 27 iodinated): does not bind strongly; effect on binding of the SRIF-28 radioligand to human SSTR4 (human SSTR4; at concentrations of 100 nM): minimal effects; effect on binding of the SRIF-28 radioligand to human SSTR5 (human SSTR5; at concentrations of 100 nM): minimal effects
 | > 1000 nM | > 1000 nM | > 1000 nM | > 10000 nM |  |  |  | 43 nM |  |  |  |  | CC(C)NCc1ccc(C[C@H]2C(=O)N[C@@H]([C@@H](C)O)C(=O)N[C@@H](Cc3ccccc3)C(=O)N[C@@H]([C@@H](C)O)C(=O)N[C@@H](CO)C(=O)N[C@H](C(=O)O)CSSC[C@H](N)C(=O)N[C@@H](CCCCN)C(=O)N[C@@H](Cc3ccccc3)C(=O)N[C@@H](Cc3ccccc3)C(=O)N[C@H](Cc3ccc4ccccc4c3)C(=O)N2C)cc1 [Peptide No. 15, (cyclo)H-Cys-Lys-Phe-Phe-D-2Nal-N^αMeIAmp-Thr-Phe-Thr-Ser-Cys-OH] (H-CKFF[d2Nal][NMePhe(4-CH2NHiPr)]TFTSC-OH; disulfide 1-11) | IC50 (human SSTR1; unit inferred, read-out: IC50 / binding affinity at SSTR1, unit inferred): ~32.5 nM
 |  |  |  |  | bind strongly and selectively |  |  |  |  |  |  |  | (cyclo 3-14)MeCbm-Cys-Lys-Phe-Phe-D-Trp-N^αMeIAmp-Thr-Tyr-Thr-Ser-Cys-OH [Peptide No. 17] | 
~21 nM |  |  |  |  |  |  | > 1000 nM | 24.5 nM | > 10000 nM | > 10000 nM | > 10000 nM | > 10000 nM | CC(C)NCc1ccc(C[C@H]2C(=O)N[C@@H]([C@@H](C)O)C(=O)N[C@@H](Cc3ccc(O)cc3)C(=O)N[C@@H]([C@@H](C)O)C(=O)N[C@@H](CO)C(=O)N[C@H](C(=O)O)CSSC[C@H](N)C(=O)N[C@@H](CCCCN)C(=O)N[C@@H](Cc3ccccc3)C(=O)N[C@@H](Cc3ccccc3)C(=O)N[C@H](Cc3ccc4ccccc4c3)C(=O)N2C)cc1 [Peptide No. 9A, (cyclo)H-Cys-Lys-Phe-Phe-D-2Nal-N^αMeIAmp-Thr-Tyr-Thr-Ser-Cys-OH] (H-CKFF[d2Nal][NMePhe(4-CH2NHiPr)]TYTSC-OH; disulfide 1-11) | IC50 (human SSTR3; inhibition of radioligand binding of 125I-[Leu8,D-Trp22,Tyr24]SRIF-28, cloned receptor, table, read-out: IC50 (nM) mSSTR3): > 1000 nM; IC50 (human SSTR3; read-out: concentration below which no binding to SSTR3): > 1000 nM; IC50 (human SSTR4; read-out: concentration below which no binding to SSTR4): > 10000 nM
